Measured values from paper PMC6411751, “Use of machine learning to identify novel, behaviorally active antagonists of the insect odorant receptor co-receptor (Orco) subunit” (Scientific Reports, 2019).
Structures can show the parent of a compound that is named as a salt.

Legend:
D. melanogaster larvae = test: Larval chemotaxis assay (attraction to ethyl acetate); type: in vivo, Drosophila melanogaster; settings: for larval preference, compound alone vs. mineral oil vehicle: 10 µL of 100 mM on plate filter
Method: We have previously provided a detailed description of these methods. Briefly, Canton-S (CS) flies were used as wild type (wt). The experimental chamber was a 100 × 15 mm polystyrene Petri dish (VWR) with 20 mL of 1.1% agarose coating the bottom. In this assay, 50 third-instar larvae were placed inside a “starting circle” at the center of the plate (the circle was drawn on the outside bottom of the plate). A line was also drawn that divided the plate in half. Small filter paper discs (d = 6 mm, Whatman Cellulose Filter Paper, # 1030 023) were placed on opposite sides of the plate (see Fig. 8A). Onto each filter paper disc was placed 10 μL of solution, containing either vehicle of dilution (mineral oil), odorant attractant (EA, diluted in mineral oil) or an Orco antagonist compound (diluted in mineral oil). The sides of the plate on which the compounds or vehicle were placed were alternated from experiment to experiment.
In order to test Orco antagonists for the ability to affect the chemotaxis assay, a large (d = 9 cm) filter paper (Whatman Filter Paper # D00161-S) was adhered with double-sided tape to the inside of the Petri dish lid. This allowed the larvae to be exposed to Orco antagonists in an airborne context. For light repulsion experiments, we used a Zeiss CL6000 LED light source at 76% intensity. Following the 5 min migratory period, plates were photographed, coded and then blind counted. Any larvae still within the starting circle or touching the center line were excluded from the analysis. A Response Index (RI) was calculated as RI = (S − C)/(S + C), where S is the number of larvae on the stimulus (EA) side and C is the number of larvae on the control (mineral oil) side. RI = 1 would indicate complete attraction, RI = −1 would indicate complete repulsion, and RI = 0 would indicate no preference. Statistical significance was assessed using a one-way analysis of the variance followed by Dunnett’s’s post-test.

fruit fly antennae = test: Electroantennogram (EAG) recordings in adult flies; type: in vivo, Drosophila melanogaster; settings: for amplitude of EAG responses to EA and 2 H: adult flies
Description: Adult flies (w1118 strain, 3–5 days old) were mounted in truncated pipette tips for detection of antennal responses[69],[70]. EAG data were obtained with an IDAC-232 (Syntech), which was linked to a computer via the EAGpro data acquisition interface. SSR data were acquired with an IDAC 4 and AutoSpike (Syntech). Recording and indifferent electrodes were made of silver/silver chloride wires enclosed in glass capillary needles, which were pulled with a Micropipette Puller (P-97, Sutter Instruments Co.) and filled with 1 M potassium chloride in 1% polyvinylpyrrolidone. The indifferent electrode was inserted in the eye of an immobilized fly, while the EAG recording electrode was placed on the third segment of the antenna under a S2X12 Olympus microscope and by using a micromanipulator MP-12 (Syntech). For SSR, the recording electrode was inserted into a desired sensillum under a stage microscope (BX51WI, Olympus) and using a Piezo Manipulator (PM10, World Precision Instrument). The stimulus delivery system consisted of a Stimulus Controller CS-55 (Syntech), which delivered charcoal-filtered, humidified air at 650 mL/min through a stimulus tube (5 cm long; internal diameter, 8 mm). The outlet of the stimulus delivery tube was set 1 cm away from the preparations. Stimulus pulses (0.5 sec) were introduced through a hole in the stimulus delivery tube 2.5 cm away from outlet. A compensatory flow was applied through another hole in the tube (directly across from the stimulus pulse hole). The total flow (continuous plus compensatory or continuous plus stimulus) of 0.6 mL/s was measured at the center of the outlet of the stimulus delivery tube with an Anemometer Lite (Model 6006, Kanomax, Osaka, Japan). 10 µL of the odorants EA and 2 H (freshly diluted to 0.01%, 0.1% or 1% in mineral oil) or the Orco antagonist compounds BMP and LF (freshly diluted to 1% or 50% in mineral oil) were loaded onto filter papers (1 cm^2). The filter papers containing odorants were placed inside of stimulus cartridges. Loading of odorant containing filter papers into the cartridges occurred in ambient air, which could contain trace amounts of odorants. Thus, stimulus pulses with ambient air (filter papers containing mineral oil alone) in the cartridges were used to define a baseline response. For EAG, filter papers containing BMP or LF (50% in mineral oil) were placed inside the main airflow tube 8 cm away from the antenna and odorants were delivered through a hole 2.5 cm away from the outlet. For SSR, BMP (1% in mineral oil) was delivered into the holes 2.5 cm away from the outlet, whereas the odorants were delivered upstream through a hole 4 cm away from the outlet. The different delivery arrangements may contribute to the difference in apparent BMP potency in the EAG and SSR experiments (Figs 6 and 7). Each filter paper was used 3–5 times before being replaced. CO2 was freshly collected into stimulus cartridge from the breath of the same subject (P.X.) and used only once. Spikes were manually counted 0.5 s before and 0.5 s after stimulus and the results presented as poststimulus number of spikes per 0.5 s (number of spikes after stimulus minus number of spikes prior to stimulus). Data were analyzed with One Way ANOVA using Prism 7 (GraphPad).

[1] = system: ab2 sensilla (EA responsive OSN); test: Single sensillum recording (SSR), ab2 sensilla, ethyl acetate response; type: in vivo, Drosophila melanogaster
Description: (§1) Adult flies (w1118 strain, 3–5 days old) were mounted in truncated pipette tips for detection of antennal responses[69],[70]. EAG data were obtained with an IDAC-232 (Syntech), which was linked to a computer via the EAGpro data acquisition interface. SSR data were acquired with an IDAC 4 and AutoSpike (Syntech). Recording and indifferent electrodes were made of silver/silver chloride wires enclosed in glass capillary needles, which were pulled with a Micropipette Puller (P-97, Sutter Instruments Co.) and filled with 1 M potassium chloride in 1% polyvinylpyrrolidone. The indifferent electrode was inserted in the eye of an immobilized fly, while the EAG recording electrode was placed on the third segment of the antenna under a S2X12 Olympus microscope and by using a micromanipulator MP-12 (Syntech). […] The total flow (continuous plus compensatory or continuous plus stimulus) of 0.6 mL/s was measured at the center of the outlet of the stimulus delivery tube with an Anemometer Lite (Model 6006, Kanomax, Osaka, Japan). […] Spikes were manually counted 0.5 s before and 0.5 s after stimulus and the results presented as poststimulus number of spikes per 0.5 s (number of spikes after stimulus minus number of spikes prior to stimulus). Data were analyzed with One Way ANOVA using Prism 7 (GraphPad).

[2] = system: ab1 sensilla (CO2 responsive OSN, Gr21 and Gr63a); test: Single sensillum recording (SSR), ab1 sensilla, CO2 response; type: in vivo, Drosophila melanogaster; settings: 10 µL of 1% compound in mineral oil
Description: as §1

[3] = system: sham (water) injected oocytes; test: Application of Orco antagonists to sham (water) injected oocytes; type: cell-based, Xenopus laevis; settings: 3 mM
Method: To measure antagonist activity at Orco, Agam\Orco was activated by the Orco agonist OLC12[34]. Following two successive 60 sec applications of 30 μM OLC12, with 5 min washes between applications, each antagonist candidate was applied for 90 sec, immediately followed by a 60 sec co-application of antagonist candidate and OLC12. The 90 sec application of each compound alone (prior to co-application of the compound and OLC12) allowed us to ensure that antagonist candidate compounds were not causing non-specific effects on the oocytes that might confound the results. The current response to OLC12 in the presence of antagonist candidate was compared to the mean of the preceding two responses to OLC12 alone and presented as a percentage[34],[35]. This value was then normalized to the value obtained when the assay was run in the absence of antagonist candidate (sham).
Figure S2. Applic a tion of Orco antagonists to s ha m (wa ter) injected oocytes.
Up p e r tra ce, current recording from a sham (water) injected oocyte that was challenged with 60 sec applications of 100 µM an d 1 mM 3-isopropyl-6-methyl-ca t e ch o l (3 I6MC). Representative of recordings from 4 oocytes. Lo we r trace, current recording from a sham (water) injected oocyte that was challenged with 60 sec applications of 3 mM 2-tert-butyl-6-methylphenol (BMP) and linalyl formate (LF). Representative of recordings […]

[4] = 10 µL of 50% compound in mineral oil in main airflow

| Compound | larval attraction to EA with airborne compound (D. melanogaster larvae; 30 mM on lid filter) | larval preference, compound alone vs. mineral oil vehicle (D. melanogaster larvae) | larval attraction to EA with airborne compound (D. melanogaster larvae; 685 µL of 100 mM on lid filter) | baseline EAG response to ambient air (fruit fly antennae; [4]) | amplitude of EAG responses to EA and 2 H (fruit fly antennae; [4]) | extent of inhibition of EAG responses across 0.01%, 0.1%, 1% 2H (fruit fly antennae; 50% BMP in main airflow, n = 3) | extent of inhibition of EAG responses across 0.01%, 0.1%, 1% EA (fruit fly antennae; 50% BMP in main airflow, n = 3) | odorant agonist activity in EAG (fruit fly antennae; compound alone) | SSR response of ab2 sensilla to EA ([1]; 10 µL of 1% compound in mineral oil, 0.1% EA) | reversibility of effect on ab2 EA response ([1]; subsequent response to EA alone) | SSR response of ab1 sensilla to CO2 [2] | non-specific effects on sham (water) injected oocytes [3] |
| --- | --- | --- | --- | --- | --- | --- | --- | --- | --- | --- | --- | --- |
| Cc1cccc(C(C)(C)C)c1O [BMP, 2-tert-butyl-6-methylphenol] | did not significantly affect attraction to EA | displayed no preference | completely abolished larval attraction to EA | significantly reduced the baseline response | significantly reduced the amplitude | did not differ | did not differ | did not act as an odorant agonist | abolished the response | reversible | had no effect on the CO2 response | Neither BMP or LF exerted any non-specific effects |
| C=CC(C)(CCC=C(C)C)OC=O (centres unmarked) [LF, linalyl formate] | significantly reduce larval attraction to EA | displayed no preference | completely abolished larval attraction to EA |  | did not alter the amplitude |  |  |  |  |  |  | Neither BMP or LF exerted any non-specific effects |
